Results: a melting point compilation (Tetko et al.; mined from patent text by program, amines drawn as free bases though some values may be those of a salt)

Row | melting point | SMILES
1 | 191 to 193 °C | O=C1C(Cc2ccccc2C(F)F)c2ccccc2C12COc1cc3c(cc12)OCCO3 (stereo not given)
2 | 208 to 216 °C | Oc1ccccc1N1CCN(Cc2nc3ccccc3[nH]2)CC1
3 | 235 °C | Cc1[nH]c(/C=C2\C(=O)Nc3cc(NC(=O)c4c[nH]cc(-c5ccc(F)cc5)c4=O)ccc32)c(C)c1CC(=O)N1CCOCC1
4 | 188 to 190 °C | Cc1ccccc1NC(=O)Nc1ccc(C(=O)N2Cc3ccccc3Cc3ccccc32)cc1
5 | 153 to 154 °C | CCCCCCCCC(O)C(O)CCCCCCCCCCCC(N)=O (stereo not given)
6 | 138 to 139 °C | COC(=O)c1nc(-c2ccc(CO)cc2)cc(N)c1Cl
7 | 120 to 122 °C | Nc1c([N+](=O)[O-])cc(Br)c2c1CN(CCc1ccccc1)CC2
8 | 133 to 135 °C | CC(C)(ON1C(=O)c2ccccc2C1=O)C(=O)O
9 | 208 to 210 °C | N#Cc1cccnc1N1CCN(Cc2nc3ccccc3[nH]2)CC1
10 | 209 to 210 °C | CC(C)(C)[N+]([O-])=Cc1c[nH]c(-c2ccccc2)n1
11 | 136 to 137 °C | CCCC1=C(c2ccc(F)c(F)c2)C(=NO)CC1
12 | 211 to 213 °C | Oc1ccc2nc(Nc3ccccc3)cnc2c1
13 | 172 to 173 °C | CCc1noc(-c2cn(-c3ccc(Oc4ccccc4)cc3)cn2)n1
14 | 239 to 241 °C | Cc1ccc(C(=O)NC2CC2)cc1-c1cc2cnc(NC3CCOCC3)nc2n(C)c1=O
15 | 153 to 155 °C | CN(C)C(=O)NCC1(C)OCCc2c1[nH]c1ccccc21 (stereo not given)
16 | 115 °C | CC(=O)OC1CSC(Oc2cncc(-c3ccc(F)cc3Cl)c2)C(OC(C)=O)C1OC(C)=O (stereo not given)
17 | 161 to 165 °C | COc1cc2c(c3c1OC(C)(C)C3)C(c1cccc(-c3ccc(C(=O)O)cc3)c1)=NC(C)(C)C2
18 | 244 to 246 °C | N#Cc1cnc2c(c1Nc1ccc(Cl)cc1Br)C=C1N=CN=C1C2
19 | 109 to 111 °C | CC(C)(C)OC(=O)ON1C(C)(C)CC(OC(=O)c2ccccc2)CC1(C)C
20 | 167 to 169 °C | CCn1c(-c2ccnc3ccccc23)nc(-c2ccncc2)c1-c1ccc(Cl)cc1
21 | 144 to 146 °C | COc1cccc2c1CN(Nc1ccncc1)C2
22 | 216 to 217 °C | COC(=O)c1ccc(-c2nnc(-c3ccc(C(F)(F)F)cc3)o2)cc1
23 | 187 °C | O=C(O)c1cc(C(=O)C(F)(F)F)cc2c1OC(c1ccccc1)(c1ccccc1)O2
24 | 229 to 231 °C | CC(=O)Nc1ccc(-c2ccnc3c(C(=O)c4ccccc4)cnn23)cc1

Row | melting point | SMILES
25 | > 270 °C | CCn1c(=O)c2[nH]c(/C=C/c3cccc([N+](=O)[O-])c3)nc2n(CC)c1=O
26 | > 310 °C | O=c1cc2c(nn1-c1ccc(Cl)cc1)-c1ccccc1S(=O)(=O)CC2
27 | 168 to 169 °C | CC(=O)SCC(Cc1ccccc1)C(=O)Nc1ccc(N(C)C)c(C(=O)O)c1 (stereo not given)
28 | 63 to 64 °C | CN=C(NC#N)NCCSCc1ccsn1
29 | 170 to 171 °C | CON=C[C@H]1NC(=O)[C@H]1NC(=O)OCc1ccccc1
30 | 191 °C | COc1ccc(C(Cn2cc[nH]c2=O)=NO)cc1OC1CCCC1
31 | 248 to 249 °C | CCCC[C@@H](C)[C@@H](O)[C@H](NC)C(=O)O
32 | 233 °C | CN1CCN(C(=O)CCC(=O)c2ccc3[nH]c4ncc(Cl)cc4c3c2)CC1
33 | 122 °C | Cc1nc2c(O[C@@H]3c4ccccc4C[C@H]3O)cc(C(=O)N(C)C)cn2c1C (relative stereo)
34 | 196 to 198 °C | CSC(=O)C(C#N)C(=O)Nc1ccc(C(F)(F)F)cc1 (stereo not given)
35 | 177 to 179 °C | O=C1N[C@H](Cc2ccc(C(F)(F)F)o2)[C@H](c2ccc(F)cc2)O1 (racemic)
36 | < 250 °C | COc1ccc2nc(Cl)c(NN)nc2c1
37 | 143 to 145 °C | CCc1c(C(C)C)cc(C(C)C)c(C(C)O)c1-c1ccc(F)cc1 (single isomer, unassigned; (+))
38 | 165 to 167 °C | CSc1ccc(CC(=O)C(=O)O)cc1
39 | 93 to 95 °C | Cc1nc(CO)c(OCc2ccccc2)c(=O)n1C
40 | 73 to 75 °C | CCOCC(=O)c1cc(C(C)(C)C)c(O)c(C(C)(C)C)c1
41 | 212 to 214 °C | NC(=O)N1Cc2ccccc2-c2ccccc2C1
42 | 182 to 183 °C | CCOC(=O)C1=C(C)Nc2ccnn2C1c1ccccc1C(F)(F)F (stereo not given)
43 | 157 to 158 °C | CC(NC(=O)OC(C)(C)C)c1ccc(NS(C)(=O)=O)c(C#Cc2ccccc2)c1 (stereo not given)
44 | 116 to 118 °C | O=C1C=C(Nc2ccccc2F)CCC1
45 | 106 to 110 °C | CC(N)(Cc1c[nH]c2ccccc12)C(=O)NCCc1ccccc1 (stereo not given)
46 | 70 to 81 °C | COc1ccc(CC2c3cc(O)c(OC)cc3CCN2CC2CC2)cc1O (single isomer, unassigned; (+))
47 | 119 to 120 °C | Cc1ccc(-n2ccc3c(Cl)nn(C)c(=O)c32)c(C)c1
48 | 217 to 219 °C | Fc1ccc2c(CN3CCN(c4ccc(Cl)cc4)CC3)n[nH]c2c1

Row | melting point | SMILES
49 | 172 to 174 °C | O=C(O)c1cccnc1N1CCN(CCOCCO)CC1
50 | 131 to 132 °C | O=C(OCc1ccccc1)N(CCNC(=O)C(F)(F)F)CCNC(=O)C(F)(F)F
51 | 161 to 162 °C | Cc1cccc(S(=O)(=O)Nc2cccnc2Nc2ccccc2)c1
52 | 97 to 98 °C | COc1ccc(CCn2ccc3ccc(-c4cccc(C(=O)NCCN(C)C)c4)nc32)cc1OC
53 | 148 to 150 °C | N=C(N)c1ccc2c(c1)N(CC(=O)c1ccccc1-c1ccccc1)C(=O)CN2
54 | 164 to 165 °C | CC(C)c1cc(C(C)C)c(CC(=O)NS(=O)(=O)Oc2c(C(C)C)cc(SC#N)cc2C(C)C)c(C(C)C)c1
55 | 252 °C | Cn1cc(-c2cc(-c3ccc(N)nc3)ccn2)n(-c2ccc(C(C)(C)C#N)cc2)c1=O
56 | 201 to 202 °C | O=C(NC(=O)c1c(F)cccc1F)Nc1cc(Cl)c(OCC(F)(F)F)cc1F
57 | 128 to 130 °C | Cc1ccc(-c2ccccc2C(N)=O)cc1
58 | 231 to 232 °C | O=C(O)C1=Cc2cc(Cl)c(Oc3ccc(C(F)(F)F)cc3)cc2OC1C(F)(F)F (stereo not given)
59 | 86 to 89 °C | COc1ccc(Br)c(CN(CC(F)(F)F)C(=O)OC(C)(C)C)c1
60 | 228 to 230 °C | O=C1OC(=Cc2ccccc2C(F)(F)F)C(O)=C1c1ccc(-c2ccccc2)cc1
61 | 93 to 94 °C | CCOC(=O)c1cccc(C)c1S(N)(=O)=O
62 | 180 to 184 °C | Cc1ccc(C=CCN2CCc3nc(N)sc3CC2)cn1
63 | 75.5 to 78 °C | CN(C)CC(C)(CSC(=S)N(C)C)[N+](=O)[O-] (stereo not given)
64 | 207 °C | O=C(Nc1ccc(NC(=S)NCc2ccccc2)cc1)c1ccc(NC(=S)NCc2ccccc2)cc1
65 | 98 °C | CN(C)S(=O)(=O)c1cc(C(=O)CBr)ccc1Cl
66 | 261 to 263 °C | O=C1N=C(c2ccccc2OCC(F)(F)F)N=C2N=CN=C12
67 | > 240 °C | O=c1ccc(S(=O)(=O)c2oc3ccc(Cl)cc3c2O)n[nH]1
68 | 134 to 137 °C | N#Cc1ccc2cc(CBr)ccc2c1
69 | 211 to 213 °C | OC1CC2(CCN(C3CCC3)CC2)Oc2ccccc21 (stereo not given)
70 | 75 to 80 °C | COC(=O)c1ccccc1/C=C/CO
71 | 47 to 48 °C | Cc1cc(S(=O)(=O)F)ccc1Br
72 | 240 to 243 °C | Cc1nc(-n2ccc(O)cc2=O)sc1C(=O)NCc1ccccc1

Row | melting point | SMILES
73 | 115 to 116 °C | CCOC(=O)c1c(O)c2cc(F)ccc2c(=O)n1CC(C)(C)C
74 | 137 to 138 °C | COc1ccc2c3c(oc2c1)CC(CC1CCN(Cc2ccccc2)CC1)C3=O (stereo not given)
75 | 98 to 101 °C | OC(CNC1CCc2ccccc2C1)COc1ccccc1Cl (stereo not given)
76 | 145 to 147 °C | CCC1(CCCCN2CCN(c3ccc(Cl)cc3)CC2)C(=O)Nc2cc(F)ccc21 (stereo not given)
77 | 173 to 175 °C | CCOc1ccc(-c2ccc3c(c2)C=C(C(=O)OC)CCS3(=O)=O)cc1
78 | 99 to 102 °C | Cc1cc(SC#N)c(C(C)(C)C)cc1O
79 | 182 °C | Cc1cc(Oc2cccc(C(=O)O)n2)n(C)n1
80 | 130 °C | CC(C)(Oc1ccc(C(=O)c2ccccc2)cc1)C(=O)O
81 | 203 to 204 °C | CN1CC(c2cc(OCc3ccccc3)ncn2)=C(O)C1=O
82 | 180 to 182 °C | C[C@@H]1O[C@](/C=C/C2CC2)(C(F)(F)F)c2cc(F)ccc2NC1=O (relative stereo)
83 | 52.1 to 54 °C | CCCc1c(C(OC)OC)cc([N+](=O)[O-])c(OC)c1OC
84 | 99 to 105 °C | Cc1cc(F)ccc1-c1nc(NC(C)(C)CO)nc2c1ccc(=O)n2-c1c(F)cccc1F
85 | 196 to 197 °C | CC(C)(C)OC(=O)CCc1ccc(-c2nc(=O)c3ccccc3s2)nc1C#N
86 | 99 to 101 °C | CCCCCC(CO)n1cnc(NC(=O)c2ccccc2C(=O)O)c1 (stereo not given)
87 | 114 to 117 °C | Nc1nc(N2CCCC2)c2ncn([C@@H]3C[C@H](CO)[C@@H](O)C3)c2n1
88 | 61 to 62 °C | CCCCCCCCCCCCCCOc1ccc2c(C)cc(=O)oc2c1
89 | 135 to 137 °C | CC(C)(C)c1cc(-c2nn(CC3CC3)c3ncccc23)cc(C(C)(C)C)c1O
90 | 65 to 68 °C | COc1cccc(F)c1-c1ccc(NC(=O)OC(C)(C)C)c([N+](=O)[O-])c1
91 | 134 to 140 °C | COc1cccc(C23CCCC=C2C(=O)N(CCc2ccc(C)cc2)C(=O)C3)c1 (stereo not given)
92 | 115 °C | CCOC(=O)[C@H]1CC[C@@H](c2ccccc2)N1C(=O)CNC(=O)Nc1cccc(C)c1 (racemic)
93 | 114 to 117 °C | Clc1nc(N2CCCCC2)c2ncnc(Cl)c2n1
94 | 30 to 32.5 °C | C=CCOc1cccc(C(=O)CCC(=O)OC)c1

Row | SMILES | melting point
95 | CN(C)C=Cc1nc2ccc(F)cc2c(=O)n1-c1cccnc1Cl | 197 to 200 °C
96 | CCCC1NS(=O)(=O)N(CCN2CC=C(c3c[nH]c4cc(F)ccc34)CC2)c2ccccc21 (stereo not given) | 196 to 198 °C
97 | CCC1(CC)C(=O)N(CC(O)Cc2cc(C(C)C)c(O)c(C(C)C)c2)C(=O)N(CC(O)Cc2cc(C(C)C)c(O)c(C(C)C)c2)C1=O (stereo not given) | 126 to 127 °C
98 | CC1=NC(c2ccccc2)c2c(cc[nH]c2=O)N1 (stereo not given) | 263 to 264 °C
99 | N#Cc1c(Cl)cccc1CBr | 83 °C
100 | O=C1NC(=S)NC(=O)C1=Cc1ccc([N+](=O)[O-])s1 | 285 °C
